Data on three compounds can be found in paper PMC3314626, “Crystal Structures of the Tetratricopeptide Repeat Domains of Kinesin Light Chains: Insight into Cargo Recognition Mechanisms” (PLoS ONE, 2012).

Entries after “also recorded” stand apart in the source; their conditions may differ. Read-outs that look alike come from different tables or passages of the source.

For experiment [1], the target named is T1, KLC1-TPR (Homo sapiens, UniProt Q07866).
T1 construct: KLC1-TPR (residues 228–495, genbank: NP_005543); made in house; host or cells: E. coli BL21(DE3)-CodonPlus-RIL
T1 sequence (Q07866 228-495): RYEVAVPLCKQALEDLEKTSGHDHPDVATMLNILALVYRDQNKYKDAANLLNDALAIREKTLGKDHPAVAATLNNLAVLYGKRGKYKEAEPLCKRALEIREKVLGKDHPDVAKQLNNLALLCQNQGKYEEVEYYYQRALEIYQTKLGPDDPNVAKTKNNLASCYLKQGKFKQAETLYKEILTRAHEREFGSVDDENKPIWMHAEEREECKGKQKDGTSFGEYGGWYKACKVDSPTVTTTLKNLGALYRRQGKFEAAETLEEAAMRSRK
Briefly: ITC binding of JIP1 or ALC1 peptide to KLC1-TPR. The conditions noted are these: 25°C; for Kd / ΔH: 20 mM Bis-Tris pH 6.5, 500 mM NaCl, 0.5 mM TCEP; for Kd: Kd determined from Ka of one-site fit, Table 3; for Kd / N (binding stoichiometry) / ΔH: ± SD from fit; for ΔS / N (binding stoichiometry): pH 6.5, 500 mM NaCl; for ΔS / N (binding stoichiometry) / ΔH: one-site model; for ΔH: peptide 1–3 mM injected into 60–130 µM KLC1-TPR. On the procedure: (§1) DNAs encoding the TPR domains of KLC1-TPR (residues 228–495, genbank: NP_005543) and KLC2-TPR (residues 217–480, genbank: NP_073733) were amplified by polymerase chain reaction (PCR) using cDNAs obtained from the Mammalian Gene Collection as templates. The PCR products were cloned into a modified version of the expression plasmid pET28-LIC (genbank: EF442785) using an Infusion cloning kit (ClonTech). The KLC1-N343S and KLC2-S328N mutants were prepared with a QuickChange® kit (Stratagene).
(§2) Binding affinities of the JIP1 peptide (Ac-EYTCPTEDIYLE-COOH), ALC1peptide (Ac-EMDWDDSALT-COOH) (synthesized by Tufts University Core Facility), and ALC1 protein to the KLC1-TPR, KLC2-TPR and their mutants were measured by isothermal titration calorimetry (ITC) (VP-ITC microcalorimeter, MicroCal Inc.). Measurements were performed at 25°C by injecting 5–10 µl of peptide solution (1–3 mM) into a sample chamber containing 60–130 µM KLC1-TPR or KLC2-TPR in 20 mM Bis-Tris, pH 6.5, 500 mM sodium chloride, and 0.5 mM TCEP. For the protein-protein interaction, the sample chamber contained 15 µM of KLC1-TPR and 160 µM of the ALC1 protein in a buffer containing 30 mM HEPES 7.4, 200 mM NaCl, 0.5 mM TCEP. The syringe injections containing peptides and proteins were dissolved and dialyzed in the same buffer as the KLC proteins prior to the experiments. A total of 25 injections were performed with an interval of 300 seconds and a reference power of 13 µcal/second. The heat of dilution was controlled with binding isotherms from reference injections containing the peptide alone prior to fitting of the data. ITC data were analyzed using Origin software (MicroCal Inc) and were fit using a one-site binding model.

The next experiment has as its target T2, KLC2-TPR (Homo sapiens, UniProt Q9H0B6).
T2 construct: KLC2-TPR (residues 217–480, genbank: NP_073733); made in house; host or cells: E. coli BL21(DE3)-CodonPlus-RIL
Briefly: ITC binding of JIP1 peptide to KLC2-TPR. As to conditions: 25°C. On the procedure:
as §1, §2

The target of a further experiment is T3, KLC1-N343S (Homo sapiens, UniProt Q07866, N343S).
T3 construct: KLC1-TPR (residues 228–495, genbank: NP_005543); made in house; host or cells: E. coli BL21(DE3)-CodonPlus-RIL
T3 sequence (Q07866 228-495 N343S): as the sequence (Q07866 228-495) above, with N116S counted along it
Briefly: ITC binding of JIP1 or ALC1 peptide to KLC1-N343S mutant. The conditions noted are these: 25°C; for ΔS / N (binding stoichiometry) / Kd / ΔH: one-site model, N.B = no binding was observed; for N (binding stoichiometry) / Kd / ΔH: ± SD from fit; for ΔH: peptide 1–3 mM into chamber, 20 mM Bis-Tris pH 6.5, 500 mM NaCl, 0.5 mM TCEP. Here is the method: as §1, §2

Another experiment concerns the target T4, KLC2-S328N (Homo sapiens, UniProt Q9H0B6, S328N).
T4 construct: KLC2-TPR (residues 217–480, genbank: NP_073733); made in house; host or cells: E. coli BL21(DE3)-CodonPlus-RIL
Briefly: ITC binding of JIP1 peptide to KLC2-S328N mutant. As to conditions: 25°C. Here is the method: as §1, §2

The target in a further experiment is T5, KLC1-N301A (Homo sapiens, UniProt Q07866, N301A).
T5 construct: KLC1-TPR (residues 228–495, genbank: NP_005543); made in house; host or cells: E. coli BL21(DE3)-CodonPlus-RIL
T5 sequence (Q07866 228-495 N301A): as the sequence (Q07866 228-495) above, with N74A counted along it
Description: ITC binding of ALC1 peptide to KLC1-N301A mutant. As to conditions: 25°C. On the procedure:
as §2
Tryptophans at position 903 and 973 of ALC1 are crucial in binding to KLC1 as their mutation to alanines disrupt the interaction. There are two negatively charged aspartic acids and a polar serine residue adjacent to the tryptophans. Due to the similarities of the ALC1 residues to those of JIP1, the recognition of ALC1 by KLC1-TPR could also involve a “clamping” feature. However, such clamp must be different from the JIP1 binding polar patch as N343 is not required for ALC1 binding. Also, residues lining the ALC1 binding clamp should be conserved between KLC1-TPR and KLC2-TPR as ALC1 can interact with both isoforms. Possible candidates are N301 and N344 residues in the inner helices of TPR3 and TPR4 of KLC1-TPR. N301 extends toward the neighboring helix and interacts with N344, and is adjacent to K340 and Q341. As these residues are conserved in KLC2-TPR, N301 of KLC1-TPR was mutated into an alanine (KLC1-N301A) and tested its binding behavior towards ALC1 peptide. […] Together, N301 of KLC1-TPR plays an important role in binding of ALC1, probably by forming one of the ALC1 binding clamps.

Experiment [2] addresses T1, KLC1-TPR. Briefly: ITC binding of cytosolic domain of ALC1 protein to KLC1-TPR. Here is the method:
as §1, §2
In order to elucidate a comprehensive view of ALC1 binding to KLC isoforms, the cytosolic domain of ALC1 was purified for the ITC binding studies. […] This would cause the modest increase in binding affinity to KLC1-TPR, compared to the ALC1 peptide. […]

[3] abbreviates: pH 6.5, 500 mM NaCl, N.B = no binding was observed.
Setting [4] is: pH 6.5, 500 mM NaCl, one-site model.
[5] abbreviates: pH 6.5, 500 mM NaCl, one-site model, ± SD from fit.
The mark [6] stands for this setting: peptide 1–3 mM into chamber, 20 mM Bis-Tris pH 6.5, 500 mM NaCl, 0.5 mM TCEP, one-site model, ± SD from fit.

T4 sequence (Q9H0B6 217-480 S328N): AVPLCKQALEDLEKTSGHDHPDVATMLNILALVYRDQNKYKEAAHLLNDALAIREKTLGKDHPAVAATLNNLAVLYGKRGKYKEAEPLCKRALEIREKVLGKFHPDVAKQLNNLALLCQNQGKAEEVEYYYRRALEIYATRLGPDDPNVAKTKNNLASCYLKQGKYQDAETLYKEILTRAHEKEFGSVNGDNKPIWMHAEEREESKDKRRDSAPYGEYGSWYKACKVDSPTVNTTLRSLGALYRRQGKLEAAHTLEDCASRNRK
T2 sequence (Q9H0B6 217-480): as the sequence (Q9H0B6 217-480 S328N) above, with N112S counted along it

With `CC[C@H](C)[C@H](NC(=O)[C@H](CC(=O)O)NC(=O)[C@H](CCC(=O)O)NC(=O)[C@@H](NC(=O)[C@@H]1CCCN1C(=O)[C@H](CS)NC(=O)[C@@H](NC(=O)[C@H](Cc1ccc(O)cc1)NC(=O)[C@H](CCC(=O)O)NC(C)=O)[C@@H](C)O)[C@@H](C)O)C(=O)N[C@@H](Cc1ccc(O)cc1)C(=O)N[C@@H](CC(C)C)C(=O)N[C@@H](CCC(=O)O)C(=O)O` [JIP1 peptide, Ac-EYTCPTEDIYLE-COOH], the Kd on KLC1-TPR [1] was 9.4 ± 5.85 µM; at KLC2-TPR (setting [3]) it was “N.B”; on KLC1-N343S (pH 6.5, 500 mM NaCl, Table 3), “N.B”. The ΔS is 17.9 eu on KLC1-TPR [1]; “N.B” on KLC2-TPR (setting [3]); “N.B” at KLC1-N343S (pH 6.5, 500 mM NaCl); −31.8 eu at KLC2-S328N (setting [4]). In addition, the “N (binding stoichiometry)” value is recorded as 1.02±0.1 on KLC1-TPR [1]; “N.B” at KLC2-TPR (setting [3]); “N.B” on KLC1-N343S (pH 6.5, 500 mM NaCl); 1.18±0.01 at KLC2-S328N (setting [5]). In addition, the “interaction with KLC1-TPR (in words)” value on KLC1-TPR [1] (pH 6.5, Figure S3A) was “specifically binds to KLC1-TPR”. Further, the ΔH is -1.52 ± 0.182 kcal/mol on KLC1-TPR [1]; “N.B” at KLC2-TPR (peptide 1–3 mM into 60–130 µM KLC2-TPR, 20 mM Bis-Tris pH 6.5, 500 mM NaCl, 0.5 mM TCEP, N.B = no binding was observed); “N.B” at KLC1-N343S; -15.9 ± 1.6 kcal/mol at KLC2-S328N (setting [6]). Further, the “interaction with KLC2-TPR (in words)” value at KLC2-TPR (pH 6.5, 500 mM NaCl) is listed as “no interaction was detected; also recorded: not to KLC2-TPR”. In addition, the “ability to bind (in words)” value on KLC1-N343S (pH 6.5, 500 mM NaCl) was “lost the ability to bind”; on KLC2-S328N (pH 6.5, 500 mM NaCl) it was “gained binding capacity”.

As for “Ac-EMDWDDSALT-OH [ALC1 peptide, Ac-EMDWDDSALT-COOH]”, the Kd on KLC1-TPR [1] stood at 50.3 ± 3.1 µM; at KLC1-N343S (pH 6.5, 500 mM NaCl, Table 3, read-out: Kd) it was 44.3 ± 7.5 µM; at KLC1-N301A (pH 6.5, 500 mM NaCl, one-site model, ± SD from fit, Table 3), 179 ± 127 µM. The ΔS on KLC1-TPR [1] turned out to be 11.4 eu; at KLC1-N343S (pH 6.5, 500 mM NaCl), 14.1 eu; at KLC1-N301A (setting [4]) it was 12.9 eu. The “N (binding stoichiometry)” value stood at 1.85 at KLC1-TPR [1]; 1.85±0.04 at KLC1-TPR [1] (listed as ALC1); 2.13 at KLC1-N343S (pH 6.5, 500 mM NaCl); 2.13±0.15 on KLC1-N343S (pH 6.5, 500 mM NaCl, listed as ALC1); 1.02 at KLC1-N301A (setting [5]); 1.02±0.69 on KLC1-N301A (pH 6.5, 500 mM NaCl, one-site model, ± SD from fit, listed as ALC1). The ΔH was -2.5 ± 0.07 kcal/mol at KLC1-TPR [1], -1.7 ± 0.16 kcal/mol on KLC1-N343S and -1.2 ± 0.99 kcal/mol at KLC1-N301A (setting [6]). Moreover, the “affinity compared with wild type KLC1 (in words)” value at KLC1-N301A (pH 6.5, 500 mM NaCl) is on record as “lower affinity than the wild type KLC1”.

The compound “cytosolic domain of ALC1: purified cytosolic domain of ALC1, containing two KLC1-binding motifs (residues 893–896 and 964–967)” registered a Kd with KLC1-TPR [2] (25°C, 15 µM KLC1-TPR, 160 µM ALC1 protein, 30 mM HEPES 7.4, 200 mM NaCl, 0.5 mM TCEP, one-site model) of 2.4 µM. The same compound had a binding stoichiometry in the experiment with KLC1-TPR [2] (25°C, 30 mM HEPES 7.4, 200 mM NaCl, 0.5 mM TCEP, one-site model) of 0.85. Moreover, in the experiment with KLC1-TPR [2] (KLC1-TPR), the “affinity compared with the ALC1 peptide (in words)” value was “higher affinity than the ALC1 peptide”.
